ChEMBL document CHEMBL4257571, “Discovery of 5-(2-chloro-4'-(1H-imidazol-1-yl)-[1,1'-biphenyl]-4-yl)-1H-tetrazole as potent and orally efficacious S-nitrosoglutathione reductase (GSNOR) inhibitors for the potential treatment of COPD” (Bioorg Med Chem Lett, 2018)
≈ marks a conversion by molar mass, not a printed value.

Key:
[1] = target: Alcohol dehydrogenase class-3 (Rattus norvegicus, UniProt P12711); assay: Inhibition of rat GSNOR assessed as reduction in NADH consumption after 3 mins by spectrophotometric analysis
Chain of Alcohol dehydrogenase class-3 (P12711 whole entry): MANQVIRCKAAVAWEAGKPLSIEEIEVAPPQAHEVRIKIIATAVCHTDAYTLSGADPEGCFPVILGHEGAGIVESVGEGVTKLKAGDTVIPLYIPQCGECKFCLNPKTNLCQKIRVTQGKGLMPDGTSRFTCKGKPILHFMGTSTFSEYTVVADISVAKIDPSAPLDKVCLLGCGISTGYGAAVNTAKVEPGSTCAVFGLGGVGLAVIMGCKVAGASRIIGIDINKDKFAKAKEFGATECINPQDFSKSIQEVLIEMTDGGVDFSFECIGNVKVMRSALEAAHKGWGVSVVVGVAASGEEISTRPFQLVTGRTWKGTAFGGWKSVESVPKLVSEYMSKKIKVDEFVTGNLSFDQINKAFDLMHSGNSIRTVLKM

CYP2C9 = CYP2C9 (Homo sapiens, UniProt P11712); assay: Inhibition of CYP2C9 in human liver microsomes at 10 uM after 20 mins in presence of NADPH by LC/MS/MS analysis relative to control; format: ADME
Chain of CYP2C9 (P11712 whole entry): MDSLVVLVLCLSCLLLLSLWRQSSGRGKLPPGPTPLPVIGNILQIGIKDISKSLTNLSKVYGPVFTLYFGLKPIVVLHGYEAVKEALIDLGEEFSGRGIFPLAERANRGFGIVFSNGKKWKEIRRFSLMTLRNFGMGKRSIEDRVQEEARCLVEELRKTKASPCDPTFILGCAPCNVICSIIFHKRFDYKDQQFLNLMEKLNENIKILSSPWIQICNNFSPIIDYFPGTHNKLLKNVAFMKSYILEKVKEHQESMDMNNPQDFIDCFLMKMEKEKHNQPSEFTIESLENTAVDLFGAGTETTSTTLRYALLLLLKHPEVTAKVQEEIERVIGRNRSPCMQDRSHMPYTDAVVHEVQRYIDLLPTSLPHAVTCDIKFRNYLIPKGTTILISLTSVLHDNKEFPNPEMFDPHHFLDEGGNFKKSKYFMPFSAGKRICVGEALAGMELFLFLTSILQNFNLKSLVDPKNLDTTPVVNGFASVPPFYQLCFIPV

CYP2C19 = CYP2C19 (Homo sapiens, UniProt P33261); assay: Inhibition of CYP2C19 in human liver microsomes at 10 uM after 40 mins in presence of NADPH by LC/MS/MS analysis relative to control; format: ADME
Chain of CYP2C19 (P33261 whole entry): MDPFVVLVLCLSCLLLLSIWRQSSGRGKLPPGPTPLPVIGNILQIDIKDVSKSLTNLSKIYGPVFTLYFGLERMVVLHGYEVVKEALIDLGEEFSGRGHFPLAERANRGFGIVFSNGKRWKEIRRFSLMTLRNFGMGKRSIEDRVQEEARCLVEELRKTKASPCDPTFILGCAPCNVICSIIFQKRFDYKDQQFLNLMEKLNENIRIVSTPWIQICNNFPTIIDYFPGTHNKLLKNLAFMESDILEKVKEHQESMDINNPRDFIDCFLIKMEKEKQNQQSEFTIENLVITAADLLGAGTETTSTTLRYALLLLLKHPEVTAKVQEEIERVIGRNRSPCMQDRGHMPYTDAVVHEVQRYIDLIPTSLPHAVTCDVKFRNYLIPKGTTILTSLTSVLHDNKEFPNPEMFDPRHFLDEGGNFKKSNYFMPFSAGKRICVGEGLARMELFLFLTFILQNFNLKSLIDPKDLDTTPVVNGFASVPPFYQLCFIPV

[2] = Clearance in C57/BL6 mouse at 3 mg/kg, iv; format: ADME, organism-based; settings: in vivo
[3] = Cmax in C57/BL6 mouse at 30 mg/kg, po; format: ADME, organism-based; parameters: dose 30 mg/kg, route oral; settings: in vivo
[4] = Half life in C57/BL6 mouse at 30 mg/kg, po; format: ADME, organism-based; settings: in vivo
[5] = Ratio of drug uptake in lung to plasma of C57/BL6 mouse at 3 mg/kg, iv or 30 mg/kg, po; format: ADME, organism-based
[6] = Effective permeability of the compound by PAMPA assay; format: ADME; settings: read-out: Peff
[7] = Efflux ratio of apparent permeability across basolateral to apical side over apical to basolateral side in human Calu3 cells; format: ADME, cell-based, Calu-3
hERG (KCNH2) = hERG (KCNH2) (Homo sapiens, UniProt Q12809); assay: Inhibition of human ERG at 10 uM by patch clamp assay relative to control
Chain of hERG (KCNH2) (Q12809 whole entry): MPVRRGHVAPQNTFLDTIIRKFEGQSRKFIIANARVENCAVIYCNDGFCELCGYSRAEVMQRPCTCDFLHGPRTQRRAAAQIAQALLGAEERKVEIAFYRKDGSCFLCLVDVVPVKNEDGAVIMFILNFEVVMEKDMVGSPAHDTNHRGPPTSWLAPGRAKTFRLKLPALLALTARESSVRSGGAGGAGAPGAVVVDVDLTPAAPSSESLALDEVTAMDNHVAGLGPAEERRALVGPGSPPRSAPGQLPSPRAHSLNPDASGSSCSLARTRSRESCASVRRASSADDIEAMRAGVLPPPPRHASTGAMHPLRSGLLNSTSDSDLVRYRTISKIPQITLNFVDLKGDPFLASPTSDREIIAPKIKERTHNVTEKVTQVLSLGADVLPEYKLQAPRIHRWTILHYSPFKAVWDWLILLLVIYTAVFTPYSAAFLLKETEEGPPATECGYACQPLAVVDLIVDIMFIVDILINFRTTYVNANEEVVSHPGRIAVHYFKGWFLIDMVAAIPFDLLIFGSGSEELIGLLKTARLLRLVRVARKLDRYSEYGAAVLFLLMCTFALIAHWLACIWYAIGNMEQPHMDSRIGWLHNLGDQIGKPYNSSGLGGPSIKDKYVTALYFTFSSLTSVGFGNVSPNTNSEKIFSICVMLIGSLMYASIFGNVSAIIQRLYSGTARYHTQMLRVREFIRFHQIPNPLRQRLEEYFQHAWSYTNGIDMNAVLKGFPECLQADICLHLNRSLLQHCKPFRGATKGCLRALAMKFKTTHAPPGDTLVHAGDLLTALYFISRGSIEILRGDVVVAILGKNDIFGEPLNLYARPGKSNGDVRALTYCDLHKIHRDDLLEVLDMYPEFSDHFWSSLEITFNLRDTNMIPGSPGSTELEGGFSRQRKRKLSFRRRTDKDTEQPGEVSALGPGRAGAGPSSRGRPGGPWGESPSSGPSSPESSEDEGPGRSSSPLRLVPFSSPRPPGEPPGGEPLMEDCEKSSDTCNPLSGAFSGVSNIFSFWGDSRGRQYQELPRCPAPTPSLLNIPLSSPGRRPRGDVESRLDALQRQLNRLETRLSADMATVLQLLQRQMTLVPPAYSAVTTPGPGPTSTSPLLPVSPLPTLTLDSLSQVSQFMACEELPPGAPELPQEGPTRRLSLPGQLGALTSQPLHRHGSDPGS

Rattus norvegicus = organism: Rattus norvegicus; assay: Displacement of [35S]dATPalphaS to rat P2Y receptor at 10 uM after 60 mins by scintillation counting analysis relative to control
[8] = target: Leukotriene B4 receptor 1 (Homo sapiens) (UniProt Q15722); assay: Displacement of [3H]LTB4 to recombinant human LTB4 receptor at 10 uM after 60 mins by scintillation counting analysis relative to control
Chain of Leukotriene B4 receptor 1 (Homo sapiens) (Q15722 whole entry): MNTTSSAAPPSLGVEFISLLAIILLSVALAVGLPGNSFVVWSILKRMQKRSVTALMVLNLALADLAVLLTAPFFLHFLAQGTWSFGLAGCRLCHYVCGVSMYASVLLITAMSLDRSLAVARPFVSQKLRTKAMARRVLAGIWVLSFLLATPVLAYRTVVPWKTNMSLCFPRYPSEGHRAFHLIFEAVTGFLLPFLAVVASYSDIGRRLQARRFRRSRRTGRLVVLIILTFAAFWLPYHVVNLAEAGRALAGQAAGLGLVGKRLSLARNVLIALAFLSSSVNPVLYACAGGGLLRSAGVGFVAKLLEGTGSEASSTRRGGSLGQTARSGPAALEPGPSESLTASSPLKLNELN

Homo sapiens = organism: Homo sapiens; assay: Inhibition of chloride channel (unknown origin) at 10 uM relative to control
Bos taurus = organism: Bos taurus; assay: Inhibition of bovine PDE6 at 10 uM using [3H]cGMP as substrate after 60 mins by scintillation counting analysis relative to control
[9] = Inhibition of MT3 receptor (unknown origin) at 10 uM relative to control
[10] = Aqueous solubility of compound in DMSO; format: physicochemical
[11] = Aqueous solubility of compound in fasted state stimulated intestinal fluid at pH 6.2; format: physicochemical; settings: fasted state simulated intestinal fluid
[12] = Aqueous solubility of compound in fed state simulated intestinal fluid at pH 5.2; format: physicochemical
[13] = Aqueous solubility of compound in phosphate buffer at pH 6.8; format: physicochemical
Mus musculus [14] = assay: Anti-inflammatory activity in C57BL/6 mouse model of cigarette smoke induced chronic obstructive pulmonary disease assessed as total leukocyte count in bronchoalveolar lavage at 3 mg/kg, po administered once daily for 7 days 1 hr prior to first smoke exposure and measured on day 8 after last smoke exposure post single drug treatment by hemocytometry; format: functional
Mus musculus [15] = assay: Anti-inflammatory activity in C57BL/6 mouse model of cigarette smoke induced chronic obstructive pulmonary disease assessed as total leukocyte count in bronchoalveolar lavage at 30 mg/kg, po administered once daily for 7 days 1 hr prior to first smoke exposure and measured on day 8 after last smoke exposure post single drug treatment by hemocytometry; format: functional
Mus musculus [16] = assay: Anti-inflammatory activity in C57BL/6 mouse model of cigarette smoke induced chronic obstructive pulmonary disease assessed as total leukocyte count in bronchoalveolar lavage at 100 mg/kg, po administered once daily for 7 days 1 hr prior to first smoke exposure and measured on day 8 after last smoke exposure post single drug treatment by hemocytometry; format: functional
Mus musculus [17] = assay: Anti-inflammatory activity in C57BL/6 mouse model of cigarette smoke induced chronic obstructive pulmonary disease assessed as neutrophil count in bronchoalveolar lavage at 100 mg/kg, po administered once daily for 7 days 1 hr prior to first smoke exposure and measured on day 8 after last smoke exposure post single drug treatment by Leishman's staining based assay; format: functional
Mus musculus [18] = assay: Anti-inflammatory activity in C57BL/6 mouse model of cigarette smoke induced chronic obstructive pulmonary disease assessed as macrophages count in bronchoalveolar lavage at 10 mg/kg, po administered once daily for 7 days 1 hr prior to first smoke exposure and measured on day 8 after last smoke exposure post single drug treatment by Leishman's staining based assay; format: functional
Mus musculus [19] = assay: Anti-inflammatory activity in C57BL/6 mouse model of cigarette smoke induced chronic obstructive pulmonary disease assessed as macrophages count in bronchoalveolar lavage at 100 mg/kg, po administered once daily for 7 days 1 hr prior to first smoke exposure and measured on day 8 after last smoke exposure post single drug treatment by Leishman's staining based assay; format: functional
[20] = target: All-trans-retinol dehydrogenase [NAD(+)] ADH1B (Homo sapiens, UniProt P00325); assay: Inhibition of ADH1B (unknown origin) assessed as reduction in NADH production by spectrophotometric analysis
Chain of All-trans-retinol dehydrogenase [NAD(+)] ADH1B (P00325 whole entry): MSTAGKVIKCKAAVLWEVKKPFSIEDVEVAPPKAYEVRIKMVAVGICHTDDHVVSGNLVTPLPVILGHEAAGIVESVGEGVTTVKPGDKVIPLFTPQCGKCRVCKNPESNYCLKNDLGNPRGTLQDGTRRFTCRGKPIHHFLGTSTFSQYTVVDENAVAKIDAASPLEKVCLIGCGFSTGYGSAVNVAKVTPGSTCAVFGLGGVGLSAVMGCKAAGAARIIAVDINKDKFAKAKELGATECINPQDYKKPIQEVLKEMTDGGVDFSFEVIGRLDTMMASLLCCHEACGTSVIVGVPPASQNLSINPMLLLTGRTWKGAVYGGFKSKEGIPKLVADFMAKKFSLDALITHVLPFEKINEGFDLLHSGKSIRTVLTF

Clc1cc(-c2nnn[nH]2)ccc1-c1ccc(-n2ccnc2)cc1
IC50 [1]: 0.0091 µM | inhibition at 20 min, 10 µM (CYP2C9): 86% | inhibition at 40 min, 10 µM (CYP2C19): 86% | clearance [2]: 1.4 mL/min/kg | Cmax [3]: 8960 ng/mL | half-life [4]: 6 h | Kp [5]: 0.38 | Papp [6]: 0.12 ×10⁻⁶ cm/s | efflux ratio [7]: 0.8 | inhibition at 10 µM (hERG (KCNH2)): 11% | inhibition (Rattus norvegicus): 59% | inhibition [8]: 64% | inhibition (Homo sapiens): 50% | inhibition (Bos taurus): 60% | inhibition [9]: 100% | solubility [10]: 20000 µg/mL (≈ 62000 µM) | solubility [11]: 3.5 µg/mL (≈ 10.8 µM) | solubility [12]: 0.6 µg/mL (≈ 1.86 µM) | solubility [13]: 7 µg/mL (≈ 21.7 µM) | Activity (Mus musculus [14]): 32% | Activity (Mus musculus [15]): 49% | Activity (Mus musculus [16]): 53% | Activity (Mus musculus [17]): 47% | Activity (Mus musculus [18]): 59% | Activity (Mus musculus [19]): 61% | IC50 [20]: 54 µM
